Source: patent publication US6730792B2, “β3 adrenergic agonists” (Eli Lilly and Company, priority 2000, dated 2004)

The compounds below were run against T1, human β3 adrenergic receptor (Homo sapiens, UniProt P13945) (assay: whole cell receptor coupled c-AMP assay, human β3 receptor in CHO cells (EC50, Emax relative to isoproterenol)). Settings: % intrinsic activity relative to isoproterenol maximal response; SEM in brackets; c-AMP in transfected CHO cells.
T1 construct: expressed in transfected cells; host or cells: DXB-11 Chinese hamster ovary (CHO) cell line, stably transfected (phd expression vector)
T1 sequence (P13945 whole entry): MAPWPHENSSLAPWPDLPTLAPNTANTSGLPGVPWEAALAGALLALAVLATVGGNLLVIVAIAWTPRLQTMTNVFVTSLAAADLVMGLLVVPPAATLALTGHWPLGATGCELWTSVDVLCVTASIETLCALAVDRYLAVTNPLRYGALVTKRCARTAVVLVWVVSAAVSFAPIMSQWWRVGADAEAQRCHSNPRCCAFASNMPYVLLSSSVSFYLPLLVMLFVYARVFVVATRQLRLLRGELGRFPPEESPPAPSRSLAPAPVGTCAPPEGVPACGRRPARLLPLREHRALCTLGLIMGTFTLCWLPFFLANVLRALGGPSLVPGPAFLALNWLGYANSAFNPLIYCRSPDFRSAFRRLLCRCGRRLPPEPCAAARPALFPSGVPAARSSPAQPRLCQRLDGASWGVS
Assay type: cell-based
Outline: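 Stably transfected DXB-11 CHO cells (20,000/well) were exposed to compound for 20 min at 37 °C in HBSS/HEPES buffer with 1 mM IBMX, pH 7.4. cAMP was measured by SPA. EC50 came from a four-parameter logistic fit, and Emax is the maximal response as a percentage of isoproterenol's.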
An Emax of 74.2% was found for `CC(C)(Cc1ccc(Oc2ncccc2C(N)=O)cc1)NC[C@H](O)COc1ccccc1-c1ccc(C(=O)O)s1` [Example 449] in this work.
An Emax of 79.9% was found for `CC(C)(Cc1ccc(Oc2cccnc2C(N)=O)cc1)NC[C@H](O)COc1ccccc1-c1ccc(C(=O)O)s1` [Example 448] in this work.

Same assay, conditions: % intrinsic activity relative to isoproterenol maximal response; average of at least 3 runs; c-AMP in transfected CHO cells
With `CC(C)(Cc1ccc(Oc2ncccc2C#N)cc1)NC[C@H](O)COc1ccccc1-c1cccnc1` [Example 390] the “Emax (%) ± SEM” value was 14.4 ± 1.7%.
`CC(C)(Cc1ccc(Oc2ncccc2C(N)=O)cc1)NC[C@H](O)COc1ccccc1-c1ccncc1` [Example 376] was tested, and the “Emax (%) ± SEM” value was 48.2 ± 6.7%.
For `CC(=O)c1ccc(-c2cccc(F)c2OC[C@@H](O)CNC(C)(C)Cc2ccc(Oc3ccc(C#N)cn3)cc2)s1.O=C(O)C(F)(F)F` [Example 429], the “Emax (%) ± SEM” value was 84.7 ± 12.3%.
`CC(C)(Cc1ccc(Oc2ncccc2C#N)cc1)NC[C@H](O)COc1ccccc1-c1cc2ccccc2o1` [Example 371] was tested, and the “Emax (%) ± SEM” value was 38.9 ± 3.9%.
For `CC(C)(Cc1ccc(Oc2ncccc2C#N)cc1)NC[C@H](O)COc1ccccc1-c1ccco1.Cl` [Example 416], the “Emax (%) ± SEM” value was 68.9 ± 6.7%.
With `CC(C)(Cc1ccc(Oc2ccc(C(N)=O)cn2)cc1)NC[C@H](O)COc1ccccc1-c1cc2ccccc2s1` [Example 385] the “Emax (%) ± SEM” value was 43.1 ± 4.3%.
With `Cc1ccc(-c2ccccc2OC[C@@H](O)CNC(C)(C)Cc2ccc(Oc3ccc(C(N)=O)cn3)cc2)s1.Cl` [Example 409] the “Emax (%) ± SEM” value was 71.3 ± 3.9%.
`CC(C)(Cc1ccc(Oc2ncccc2C#N)cc1)NC[C@H](O)COc1ccccc1-c1cc2ccccc2s1` [Example 386] was tested, and the “Emax (%) ± SEM” value was 46.9 ± 6.7%.
In the case of `Cc1ccc(-c2ccccc2OC[C@@H](O)CNC(C)(C)Cc2ccc(Oc3ccc(S(C)(=O)=O)cc3)cc2)s1.Cl` [Example 396], the “Emax (%) ± SEM” value is reported as 50.5 ± 1.9%.
For `CC(C)(Cc1ccc(Oc2ccc(C#N)cn2)cc1)NC[C@H](O)COc1ccccc1-c1cc2ccccc2s1` [Example 384], the “Emax (%) ± SEM” value was 45.4 ± 5.6%.
`CC(C)(Cc1ccc(Oc2ncccc2C(N)=O)cc1)NC[C@H](O)COc1ccccc1-c1ccc(Cl)s1.Cl` [Example 418] was tested, and the “Emax (%) ± SEM” value was 74.4 ± 6.5%.

Same assay, conditions: Emax ± SEM; average of at least 3 runs except as otherwise indicated; tested as the isolated form listed
In the case of `CC(C)(Cc1ccc(Oc2ccc(C#N)cn2)cc1)NC[C@H](O)COc1ccccc1-c1ccoc1.Cl` [Example 305], the “Emax (%) ± SEM” value is reported as 68.8 ± 6.5%.
`CC(C)(Cc1ccc(Oc2ccc(C(N)=O)o2)cc1)NC[C@H](O)COc1ccccc1-c1nccs1.O=C(O)C(F)(F)F` [Example 327] was tested, and the “Emax (%) ± SEM” value was 56.7 ± 2.1%.

Same assay, conditions: Emax ± standard error of the mean; average of at least 3 runs except where n = 1; compound tested in the isolated form listed
`CC(C)(Cc1ccc(Oc2ccc(C#N)s2)cc1)NC[C@H](O)COc1ccccc1-c1cscn1.Cl` [Example 258] was tested, and the “Emax (%) ± SEM” value was 48.4 ± 5.6%.
`CC(C)(Cc1ccc(Oc2ncccc2C(N)=O)cc1)NC[C@H](O)COc1ccccc1-c1ccno1` [Example 72] was tested, and the “Emax (%) ± SEM” value was 67.6 ± 7.1%.
For `CC(C)(Cc1ccc(Oc2ncccc2C#N)cc1)NC[C@H](O)COc1ccccc1-c1cnco1.Cl` [Example 65], the “Emax (%) ± SEM” value was 55.9 ± 5.8%.
In the case of `CC(C)(Cc1ccc(Oc2nc(Cl)c(Cl)cc2Cl)cc1)NC[C@H](O)COc1ccccc1-c1nccs1.O=C(O)C(F)(F)F` [Example 157], the “Emax (%) ± SEM” value is reported as 73.3 ± 6.6%.
`COC(=O)c1ccc(Oc2ccc(CC(C)(C)NC[C@H](O)COc3ccccc3-c3ccno3)cc2)c(Cl)c1` [Example 141] was tested, and the “Emax (%) ± SEM” value was 48.3 ± 9.9%.
`CC(C)(Cc1ccc(Oc2ncccc2C(N)=O)cc1)NC[C@H](O)COc1ccc(-c2ccno2)cc1` [Example 94] was tested, and the “Emax (%) ± SEM” value was <10%.
In the case of `CC(C)(Cc1ccc(Oc2ccccc2C(N)=O)cc1)NC[C@H](O)COc1ccccc1-c1cscn1.Cl` [Example 244], the “Emax (%) ± SEM” value is reported as 66.6 ± 5.7%.
In the case of `CC(C)(Cc1ccc(Oc2ccc(S(C)(=O)=O)cc2)cc1)NC[C@H](O)COc1ccccc1-c1nccs1` [Example 130], the “Emax (%) ± SEM” value is reported as 49.5 ± 3.4%.
In the case of `COC(=O)c1ccc(Oc2ccc(CC(C)(C)NC[C@H](O)COc3ccccc3-c3ccnn3C)cc2)nc1` [Example 113], the “Emax (%) ± SEM” value is reported as 20.7 n = 1%.
For `CC(C)(Cc1ccc(Oc2ccc(S(N)(=O)=O)cc2F)cc1)NC[C@H](O)COc1ccccc1-c1cscn1.Cl` [Example 251], the “Emax (%) ± SEM” value was 33.4 ± 5.7%.
In the case of `CC(C)(Cc1ccc(Oc2ncccn2)cc1)NC[C@H](O)COc1ccccc1-c1cscn1.Cl` [Example 257], the “Emax (%) ± SEM” value is reported as 49.9 ± 3.4%.
For `CC(C)(Cc1ccc(Oc2ccc(S(N)(=O)=O)cc2F)cc1)NC[C@H](O)COc1ccccc1-c1cccs1.O=C(O)C(F)(F)F` [Example 225], the “Emax (%) ± SEM” value was 59.5 ± 4.3%.
In the case of `CC(C)(Cc1ccc(Oc2ncccc2C#N)cc1)NC[C@H](O)COc1ccccc1-c1nccs1` [Example 52], the “Emax (%) ± SEM” value is reported as 70.1 ± 3.3%.
`CC(C)(Cc1ccc(Oc2ccc(C(N)=O)cn2)cc1)NC[C@H](O)COc1cc(Cl)ccc1-c1nnco1` [Example 31] was tested, and the “Emax (%) ± SEM” value was 12.1 n = 1%.
In the case of `CC(C)(Cc1ccc(Oc2ccc(C(N)=O)cn2)cc1)NC[C@H](O)COc1ccccc1-c1nccs1` [Example 17], the “Emax (%) ± SEM” value is reported as 62.9 ± 2.2%.
In the case of `CC(C)(Cc1ccc(Oc2ncc(C(F)(F)F)cc2Cl)cc1)NC[C@H](O)COc1ccccc1-c1cccs1.O=C(O)C(F)(F)F` [Example 159], the “Emax (%) ± SEM” value is reported as 76.9 ± 7.4%.
With `CC(C)(Cc1ccc(Oc2ccc(C(N)=O)cn2)cc1)NC[C@H](O)COc1ccccc1-c1nc2ccccc2o1` [Example 26] the “Emax (%) ± SEM” value was 41.4 ± 6.6%.
For `CC(C)(Cc1ccc(Oc2ccc(C(N)=O)cc2)cc1)NC[C@H](O)COc1ccccc1-c1nccs1.O=C(O)C(F)(F)F` [Example 124], the “Emax (%) ± SEM” value was 46.7 ± 3.6%.
In the case of `CC(C)(Cc1ccc(Oc2ccccc2C#N)cc1)NC[C@H](O)COc1ccccc1-c1cscn1.Cl` [Example 243], the “Emax (%) ± SEM” value is reported as 47.9 ± 3.5%.
In the case of `CC(C)(Cc1ccc(Oc2ccc(C(N)=O)cn2)cc1)NC[C@H](O)COc1ccccc1-c1ccno1` [Example 18], the “Emax (%) ± SEM” value is reported as 49.1 ± 2.9%.
`CC(C)(Cc1ccc(Oc2ncccc2C#N)cc1)NC[C@H](O)COc1ccc(F)cc1-c1cccs1.O=C(O)C(=O)O` [Example 63] was tested, and the “Emax (%) ± SEM” value was 52.6 ± 2.5%.
For `CC(C)(Cc1ccc(Oc2ccc(C(N)=O)cn2)cc1)NC[C@H](O)COc1ccccc1-c1cc2ccccc2[nH]1` [Example 20], the “Emax (%) ± SEM” value was 30.4 ± 2.5%.
With `CCOC(=O)c1cccnc1Oc1ccc(CC(C)(C)NC[C@H](O)COc2ccccc2-c2nccs2)cc1` [Example 109] the “Emax (%) ± SEM” value was 61.4 ± 4.4%.
With `CC(C)(Cc1ccc(Oc2nc(Cl)c(Cl)cc2Cl)cc1)NC[C@H](O)COc1ccccc1-c1cccs1.O=C(O)C(F)(F)F` [Example 156] the “Emax (%) ± SEM” value was 84.9 ± 0.2%.
For `CC(C)(Cc1ccc(Oc2cccnc2C(N)=O)cc1)NC[C@H](O)COc1ccccc1-c1nccs1.O=C(O)C(F)(F)F` [Example 197], the “Emax (%) ± SEM” value was 67.7 ± 2.7%.
`CC(C)(Cc1ccc(Oc2ccc(C#N)cc2)cc1)NC[C@H](O)COc1ccccc1-c1nccs1.O=C(O)C(F)(F)F` [Example 120] was tested, and the “Emax (%) ± SEM” value was 35.8 ± 4.6%.
With `CCOC(=O)c1cccnc1Oc1ccc(CC(C)(C)NC[C@H](O)COc2ccccc2-c2ccn[nH]2)cc1` [Example 111] the “Emax (%) ± SEM” value was 23.6 n = 1%.
For `CC(C)(Cc1ccc(Oc2ncccc2C#N)cc1)NC[C@H](O)COc1ccccc1-c1cccs1.Cl` [Example 51], the “Emax (%) ± SEM” value was 74.1 ± 3.3%.
With `CC(C)(Cc1ccc(Oc2ccc(C(N)=O)cn2)cc1)NC[C@H](O)COc1cccc(-c2cc[nH]n2)c1` [Example 34] the “Emax (%) ± SEM” value was <10%.
For `CC(C)(Cc1ccc(Oc2ccc(S(C)(=O)=O)cc2)cc1)NC[C@H](O)COc1ccccc1-n1cccc1.Cl` [Example 265], the “Emax (%) ± SEM” value was 42.7 ± 9.4%.
With `CC(C)(Cc1ccc(Oc2ccc(C#N)cn2)cc1)NC[C@H](O)COc1ccccc1-c1nccs1` [Example 6] the “Emax (%) ± SEM” value was 58.7 ± 1.8%.
For `CC(C)(Cc1ccc(Oc2ccc(C(N)=O)cn2)cc1)NC[C@H](O)COc1ccccc1-c1ccncn1` [Example 75], the “Emax (%) ± SEM” value was 40.3 ± 3.7%.
`CC(C)(Cc1ccc(Oc2ccc(C(N)=O)cn2)cc1)NC[C@H](O)COc1ccccc1N1CCCC1=O` [Example 22] was tested, and the “Emax (%) ± SEM” value was 22.0 ± 5.3%.
`CC(C)(Cc1ccc(Oc2ccc(C#N)cn2)cc1)NC[C@H](O)COc1ccccc1N1CCCC1=O` [Example 11] was tested, and the “Emax (%) ± SEM” value was 18.0 ± 6.5%.
With `CC(C)(Cc1ccc(Oc2ccc(C#N)nc2)cc1)NC[C@H](O)COc1ccccc1-c1cccs1.O=C(O)C(F)(F)F` [Example 220] the “Emax (%) ± SEM” value was 56.0 ± 2.9%.
For `COC(=O)c1ccc(Oc2ccc(CC(C)(C)NC[C@H](O)COc3ccccc3-c3cccs3)cc2)c(Cl)c1` [Example 139], the “Emax (%) ± SEM” value was 62.2 ± 7.4%.
In the case of `CC(C)(Cc1ccc(Oc2ccc(C(N)=O)nc2)cc1)NC[C@H](O)COc1ccccc1-c1nccs1.O=C(O)C(F)(F)F` [Example 206], the “Emax (%) ± SEM” value is reported as 64.2 ± 8.1%.
In the case of `CCOC(=O)c1cccnc1Oc1ccc(CC(C)(C)NC[C@H](O)COc2ccccc2-c2cccs2)cc1.O=C(O)C(F)(F)F` [Example 108], the “Emax (%) ± SEM” value is reported as 87.1 ± 11.9%.
`CC(C)(Cc1ccc(Oc2ncccn2)cc1)NC[C@H](O)COc1ccccc1-c1ccno1.O=C(O)C(F)(F)F` [Example 152] was tested, and the “Emax (%) ± SEM” value was 45.3 ± 4.2%.
In the case of `CC(C)(Cc1ccc(Oc2ncccc2C(N)=O)cc1)NC[C@H](O)COc1ccccc1-c1nccs1.Cl` [Example 71], the “Emax (%) ± SEM” value is reported as 65.6 ± 1.3%.
In the case of `CC(C)(Cc1ccc(Oc2ccccn2)cc1)NC[C@H](O)COc1ccccc1-c1ccno1.O=C(O)C(F)(F)F` [Example 2], the “Emax (%) ± SEM” value is reported as 43.6 ± 9.7%.
`CC(C)(Cc1ccc(Oc2ncc(Cl)cc2Cl)cc1)NC[C@H](O)COc1ccccc1-c1cccs1.O=C(O)C(F)(F)F` [Example 173] was tested, and the “Emax (%) ± SEM” value was 87.9 ± 4.5%.
With `CC(C)(Cc1ccc(Oc2ncccc2C(N)=O)cc1)NC[C@H](O)COc1cccc(-c2ccno2)c1` [Example 93] the “Emax (%) ± SEM” value was <10%.
In the case of `CC(C)(Cc1ccc(Oc2ccc(C(F)(F)F)cc2Cl)cc1)NC[C@H](O)COc1ccccc1-c1nccs1.O=C(O)C(F)(F)F` [Example 171], the “Emax (%) ± SEM” value is reported as 47.9 ± 6.5%.
For `COC(=O)c1ccc(Oc2ccc(CC(C)(C)NC[C@H](O)COc3ccccc3-c3nccs3)cc2)nc1` [Example 116], the “Emax (%) ± SEM” value was 58.2 ± 7.2%.
